Assay results taken from patent EP4669337B1, “AGENTS USEFUL FOR THE PREVENTION OR TREATMENT OF ALLERGIC & INFLAMMATORY DISORDERS” (ATOPIA THERAPEUTICS SA, priority 2023, dated 2025).

System: engineered human embryonic kidney (HEK-293) TGF-β reporter cells
Assay: HEK-Blue hTGFβ reporter cell assay (Smad-inducible SEAP, optical density at 650 nm)
Type: cell-based
Conditions: 20 µl of a 3µM inhibitor solution in 200 µl total volume, added 1 hour before the test compound; SEQ ID NO:31 at 6.25-150 µg/ml; overnight incubation
Method: Polypeptides of the invention have been tested in the cells above in order to determine cell-surface receptors through which they signal and thereby induce immunotolerance. For this purpose, a peptide of the invention of SEQ ID NO:31 was administered to commercial engineered human embryonic kidney (HEK-293) TGF-β reporter cells that induce the production of Smad-inducible secreted embryonic alkaline phosphatase (SEAP) when human TGF-β triggers a signaling cascade leading to the formation of a Smad3/Smad4 complex which can be monitored by optical density at 650 nm as follows.
In a 96-well plate (200 µl total volume), 20 µl of a solution containing 3µM of the inhibitor LY-364947 in medium, or medium alone, are placed in a well, followed by the addition 160 µl of the HEK-Blue hTGFβ cell suspension. After 1 hour incubation, 20 µl of the test compound or the positive control are added to the wells. […] SEAP activity is assayed from the supernatant of HEK-Blue hTGFb cell by reading the optical density at 650 nm using a spectrophotometer after 3 hours incubation at 37°C with Quanti-blue, a SEAP detection reagent.
In this particular case, the formation of the Smad3/Smad4 complex (illustrated by the measured OD650 as shown on Figure 8) was induced by the presence of SEQ ID NO:31 at the following concentrations: 6.25, 12.5, 25, 50, 75, 100, 125, and 150 µg/ml. […]

## c1ccc(-c2nn3c(c2-c2ccnc4cc(OCCN5CCOCC5)ccc24)CCC3)nc1 [LY2109761]
  Smad3/Smad4 signaling cascade induced by SEQ ID NO:31 (SEAP, OD650): antagonized
